From ChEMBL document CHEMBL4373736, “Synthesis and biological evaluation of panaxatriol derivatives against myocardial ischemia/reperfusion injury in the rat” (Eur J Med Chem, 2020) come the findings set out here.

In data set [1] the test system is Cardiac muscle cell. The data set is described as follows: Cytoprotective activity against OGD/reperfusion induced injury in Sprague-Dawley rat cardiomyocytes assessed as effect on cell viability at 10 uM pretreated for 24 hrs followed by OGD for 2 hrs and subsequent reperfusion for 24 hrs (reference value: 43.9 to 45.4 +/- 1.1 %). In kind it is functional.
In data set [2] the test system is Cardiac muscle cell. The data set is described as follows: Cytoprotective activity against OGD/reperfusion induced injury in Sprague-Dawley rat cardiomyocytes assessed as effect on cell viability at 1 uM pretreated for 24 hrs followed by OGD for 2 hrs and subsequent reperfusion for 24 hrs (reference value: 43.9 to 45.4 +/- 1.1 %). In kind it is functional.
In data set [3] the test system is Cardiac muscle cell. The data set can be described thus: Cytotoxicity against Sprague-Dawley rat cardiomyocytes assessed as inhibition of cell growth at 10 uM treated for 50 hrs by MTT assay. Type of data set: cell-based.
The test system of data set [4] is Cardiac muscle cell. The data set is described as follows: Cytoprotective activity against OGD/reperfusion induced injury in Sprague-Dawley rat cardiomyocytes assessed as effect on cell viability at 0.1 uM pretreated for 24 hrs followed by OGD for 2 hrs and subsequent reperfusion for 24 hrs (reference value: 43.9 to 45.4 +/- 1.1 %). In kind it is functional.

On to `C=CCNc1nc2c(s1)C[C@]1(C)[C@H]3C[C@@H](O)[C@@H]4[C@@H]([C@@]5(C)CCCC(C)(C)O5)CC[C@@]4(C)[C@]3(C)CC(=O)[C@H]1C2(C)C`, for which the Activity in the data set on Cardiac muscle cell [1] is given as 77.4%; in the data set with Cardiac muscle cell [2], 70%; in the data set with Cardiac muscle cell [3], “Non-Toxic”; in the data set on Cardiac muscle cell [4] it was 61.6%.

As to `COc1ccc2[nH]c3c(c2c1)C[C@]1(C)[C@H]2C[C@@H](O)[C@@H]4[C@@H]([C@@]5(C)CCCC(C)(C)O5)CC[C@@]4(C)[C@]2(C)CC(=O)[C@H]1C3(C)C`, the Activity with Cardiac muscle cell [1] was 88%; in the data set on Cardiac muscle cell [2], 79.6%; in the data set on Cardiac muscle cell [3], “Non-Toxic”; in the data set on Cardiac muscle cell [4], 70.1%.

As to `CC1(C)CCC[C@](C)([C@H]2CC[C@]3(C)[C@@H]2[C@H](O)C[C@@H]2[C@@]4(C)Cc5sc(-c6ccc(C(F)(F)F)cc6)nc5C(C)(C)[C@@H]4C(=O)C[C@]23C)O1`, the Activity in the data set with Cardiac muscle cell [1] is recorded as 62.9%; in the data set with Cardiac muscle cell [2] it was 57.9%; in the data set with Cardiac muscle cell [3], “Non-Toxic”; in the data set with Cardiac muscle cell [4], 51.6%.

As to `CC1(C)CCC[C@](C)([C@H]2CC[C@]3(C)[C@@H]2[C@H](O)C[C@@H]2[C@@]4(C)Cc5c(n[nH]c5C(F)(F)F)C(C)(C)[C@@H]4[C@H](O)C[C@]23C)O1`, the Activity in the data set with Cardiac muscle cell [1] is reported as 76.4%; with Cardiac muscle cell [2], 67.6%; in the data set with Cardiac muscle cell [3] it was “Non-Toxic”; with Cardiac muscle cell [4], 60.2%.

Take `CC1(C)CCC[C@](C)([C@H]2CC[C@]3(C)[C@@H]2[C@H](O)C[C@@H]2[C@@]4(C)Cc5sc(N)nc5C(C)(C)[C@@H]4[C@@H](O)C[C@]23C)O1`: the Activity is 62.4% with Cardiac muscle cell [1], 57.6% in the data set with Cardiac muscle cell [2], “Non-Toxic” in the data set on Cardiac muscle cell [3] and 52.4% in the data set on Cardiac muscle cell [4].

For `CC1(C)CCC[C@](C)([C@H]2CC[C@]3(C)[C@@H]2[C@H](O)C[C@@H]2[C@@]4(C)Cc5sc(Nc6ccccc6)nc5C(C)(C)[C@@H]4C(=O)C[C@]23C)O1`, the Activity is 63% in the data set with Cardiac muscle cell [1], 56% in the data set on Cardiac muscle cell [2], “Non-Toxic” with Cardiac muscle cell [3] and 49.7% in the data set on Cardiac muscle cell [4].

`CCOC(=O)c1nc2c(s1)C[C@]1(C)[C@H]3C[C@@H](O)[C@@H]4[C@@H]([C@@]5(C)CCCC(C)(C)O5)CC[C@@]4(C)[C@]3(C)CC(=O)[C@H]1C2(C)C`: the Activity is given as 86.6% in the data set on Cardiac muscle cell [1], 75.3% with Cardiac muscle cell [2], “Non-Toxic” in the data set on Cardiac muscle cell [3] and 59.1% in the data set with Cardiac muscle cell [4].

`CC(=O)Nc1nc2c(s1)C[C@]1(C)[C@H]3C[C@@H](O)[C@@H]4[C@@H]([C@@]5(C)CCCC(C)(C)O5)CC[C@@]4(C)[C@]3(C)CC(=O)[C@H]1C2(C)C`: the Activity in the data set with Cardiac muscle cell [1] is reported as 61.2%; in the data set on Cardiac muscle cell [2] it was 53.6%; in the data set on Cardiac muscle cell [3], “Non-Toxic”; in the data set on Cardiac muscle cell [4] it was 48.6%.

`CC1(C)CCC[C@](C)([C@H]2CC[C@]3(C)[C@@H]2[C@H](O)C[C@@H]2[C@@]4(C)Cc5c(CO)noc5C(C)(C)[C@@H]4[C@H](O)C[C@]23C)O1`: the Activity is on record as 66.8% in the data set with Cardiac muscle cell [1], 60.9% in the data set with Cardiac muscle cell [2], “Non-Toxic” in the data set on Cardiac muscle cell [3] and 55.1% with Cardiac muscle cell [4].

On to `CC(C)c1nc2c(s1)C[C@]1(C)[C@H]3C[C@@H](O)[C@@H]4[C@@H]([C@@]5(C)CCCC(C)(C)O5)CC[C@@]4(C)[C@]3(C)CC(=O)[C@H]1C2(C)C`, for which the Activity is 66% with Cardiac muscle cell [1], 59.5% in the data set with Cardiac muscle cell [2], “Non-Toxic” with Cardiac muscle cell [3] and 50.6% with Cardiac muscle cell [4].

As to `Cc1nc2c(s1)C[C@]1(C)[C@H]3C[C@@H](O)[C@@H]4[C@@H]([C@@]5(C)CCCC(C)(C)O5)CC[C@@]4(C)[C@]3(C)CC(=O)[C@H]1C2(C)C`, the Activity is 58.5% in the data set with Cardiac muscle cell [1], 52.1% with Cardiac muscle cell [2], “Non-Toxic” in the data set on Cardiac muscle cell [3] and 48.7% with Cardiac muscle cell [4].

As for `CNc1nc2c(s1)C[C@]1(C)[C@H]3C[C@@H](O)[C@@H]4[C@@H]([C@@]5(C)CCCC(C)(C)O5)CC[C@@]4(C)[C@]3(C)CC(=O)[C@H]1C2(C)C`, the Activity is listed as 58.8% with Cardiac muscle cell [1], 52.7% in the data set with Cardiac muscle cell [2], “Non-Toxic” in the data set with Cardiac muscle cell [3] and 47% in the data set with Cardiac muscle cell [4].

As for `CC1(C)CCC[C@](C)([C@H]2CC[C@]3(C)[C@@H]2[C@H](O)C[C@@H]2[C@@]4(C)Cc5nccnc5C(C)(C)[C@@H]4C(=O)C[C@]23C)O1`, the Activity with Cardiac muscle cell [1] was 71.5%; with Cardiac muscle cell [2], 64%; in the data set on Cardiac muscle cell [3] it was “Non-Toxic”; with Cardiac muscle cell [4], 56.4%.

Regarding `CC1(C)CCC[C@](C)([C@H]2CC[C@]3(C)[C@@H]2[C@H](O)C[C@@H]2[C@@]4(C)Cc5sc(-c6ccccc6)nc5C(C)(C)[C@@H]4C(=O)C[C@]23C)O1`, the Activity was 75.3% with Cardiac muscle cell [1], 68% in the data set on Cardiac muscle cell [2], “Non-Toxic” in the data set on Cardiac muscle cell [3] and 59.1% with Cardiac muscle cell [4].

As for `CC1(C)CCC[C@](C)([C@H]2CC[C@]3(C)[C@@H]2[C@H](O)C[C@@H]2[C@@]4(C)Cc5c([nH]c6ccc(Cl)cc56)C(C)(C)[C@@H]4C(=O)C[C@]23C)O1`, the Activity in the data set on Cardiac muscle cell [1] is recorded as 62.7%; in the data set with Cardiac muscle cell [2], 57.3%; in the data set with Cardiac muscle cell [3], “Non-Toxic”; with Cardiac muscle cell [4], 51.7%.

With `CC1(C)CCC[C@](C)([C@H]2CC[C@]3(C)[C@@H]2[C@H](O)C[C@@H]2[C@@]4(C)Cc5c(C(=O)O)nn(-c6ccccc6)c5C(C)(C)[C@@H]4[C@H](O)C[C@]23C)O1`, the Activity in the data set with Cardiac muscle cell [1] is 63.1%; with Cardiac muscle cell [2] it was 56.2%; with Cardiac muscle cell [3], “Non-Toxic”; in the data set on Cardiac muscle cell [4], 51.2%.

As for `CC1(C)CCC[C@](C)([C@H]2CC[C@]3(C)[C@@H]2[C@H](O)C[C@@H]2[C@@]4(C)Cc5c([nH]c6c(Cl)cc(F)cc56)C(C)(C)[C@@H]4C(=O)C[C@]23C)O1`, the Activity is given as 62.1% in the data set with Cardiac muscle cell [1], 57.1% with Cardiac muscle cell [2], “Non-Toxic” in the data set with Cardiac muscle cell [3] and 52.9% in the data set on Cardiac muscle cell [4].

As for `CC1(C)CCC[C@](C)([C@H]2CC[C@]3(C)[C@@H]2[C@H](O)C[C@@H]2[C@@]4(C)Cc5sc(Br)nc5C(C)(C)[C@@H]4C(=O)C[C@]23C)O1`, the Activity in the data set on Cardiac muscle cell [1] is 77.2%; in the data set on Cardiac muscle cell [2] it was 69.2%; in the data set on Cardiac muscle cell [3], “Non-Toxic”; in the data set on Cardiac muscle cell [4], 59.5%.

In the case of `COc1ccc(-c2nc3c(s2)C[C@]2(C)[C@H]4C[C@@H](O)[C@@H]5[C@@H]([C@@]6(C)CCCC(C)(C)O6)CC[C@@]5(C)[C@]4(C)CC(=O)[C@H]2C3(C)C)cc1`, the Activity with Cardiac muscle cell [1] was 78.5%; in the data set with Cardiac muscle cell [2], 71.3%; with Cardiac muscle cell [3] it was “Non-Toxic”; in the data set with Cardiac muscle cell [4], 64.9%.

For `CC1(C)CCC[C@](C)([C@H]2CC[C@]3(C)[C@@H]2[C@H](O)C[C@@H]2[C@@]4(C)Cc5cnn(-c6ccccc6)c5C(C)(C)[C@@H]4[C@H](O)C[C@]23C)O1`, the Activity in the data set on Cardiac muscle cell [1] is 62.5%; in the data set on Cardiac muscle cell [2], 57.3%; in the data set on Cardiac muscle cell [3], “Non-Toxic”; with Cardiac muscle cell [4] it was 50.8%.

Consider `CC1(C)CCC[C@](C)([C@H]2CC[C@]3(C)[C@@H]2[C@H](O)C[C@@H]2[C@@]4(C)Cc5cnoc5C(C)(C)[C@@H]4[C@H](O)C[C@]23C)O1`, for which the Activity is listed as 76.9% in the data set on Cardiac muscle cell [1], 67.2% in the data set with Cardiac muscle cell [2], “Non-Toxic” in the data set on Cardiac muscle cell [3] and 60.6% in the data set on Cardiac muscle cell [4].

With `CC1(C)CCC[C@](C)([C@H]2CC[C@]3(C)[C@@H]2[C@H](O)C[C@@H]2[C@@]4(C)Cc5c([nH]c6ccccc56)C(C)(C)[C@@H]4C(=O)C[C@]23C)O1`, the Activity in the data set on Cardiac muscle cell [1] is listed as 71.1%; in the data set with Cardiac muscle cell [2] it was 64.3%; in the data set on Cardiac muscle cell [3] it was “Non-Toxic”; with Cardiac muscle cell [4] it was 56.9%.

For `CC1(C)CCC[C@](C)([C@H]2CC[C@]3(C)[C@@H]2[C@H](O)C[C@@H]2[C@@]4(C)Cc5sc(CC#N)nc5C(C)(C)[C@@H]4C(=O)C[C@]23C)O1`, the Activity in the data set on Cardiac muscle cell [1] is given as 70.1%; in the data set with Cardiac muscle cell [2] it was 64.6%; in the data set on Cardiac muscle cell [3] it was “Non-Toxic”; with Cardiac muscle cell [4] it was 58.6%.

Consider `CC1(C)CCC[C@](C)([C@H]2CC[C@]3(C)[C@@H]2[C@H](O)C[C@@H]2[C@@]4(C)Cc5c([nH]c6ccc(S(N)(=O)=O)cc56)C(C)(C)[C@@H]4C(=O)C[C@]23C)O1`, for which the Activity is 66.3% in the data set with Cardiac muscle cell [1], 61.5% with Cardiac muscle cell [2], “Non-Toxic” in the data set with Cardiac muscle cell [3] and 55.1% with Cardiac muscle cell [4].

For `CCOC(=O)c1[nH]nc2c1C[C@]1(C)[C@H]3C[C@@H](O)[C@@H]4[C@@H]([C@@]5(C)CCCC(C)(C)O5)CC[C@@]4(C)[C@]3(C)C[C@@H](O)[C@H]1C2(C)C`, the Activity is on record as 60.4% in the data set with Cardiac muscle cell [1], 54.1% with Cardiac muscle cell [2], “Non-Toxic” with Cardiac muscle cell [3] and 48% in the data set with Cardiac muscle cell [4].

Turning to `CC1(C)CCC[C@](C)([C@H]2CC[C@]3(C)[C@@H]2[C@H](O)C[C@@H]2[C@@]4(C)Cc5sc(NC(=N)N)nc5C(C)(C)[C@@H]4C(=O)C[C@]23C)O1`, the Activity in the data set on Cardiac muscle cell [1] is listed as 57.2%; with Cardiac muscle cell [2] it was 52.5%; in the data set on Cardiac muscle cell [3], “Non-Toxic”; in the data set on Cardiac muscle cell [4] it was 48.9%.
